Like-named read-outs stand apart in the source and are kept apart here.
Columns and labels:
[1] = Experiment 6: phenytoin blood serum levels; assay type: in vivo; conditions: human, oral, 10 mg/kg bodyweight, 5 hrs after 10 mg/kg bodyweight
[2] = tested on: healthy normal subjects; experiment: Experiment 6: subjective scales after phenytoin; assay type: in vivo, human
Procedure: Experiment: The motivation behind this experiment was to evaluate how EEG and behavioral indices might be used to detect mild cognitive side effects of neurological medications, such as anti-epileptic drugs (AEDs). […] The computerized tasks included a simple reaction time task and easy and difficult versions of the sustained attention WM task, in which difficulty was manipulated by varying WM load. Subjective scales were also administered to assess drowsiness, mood, and perceived drug effects. […] Transportation home was provided at the end of the sessions.

[3] = tested on: healthy normal subjects; experiment: Experiment 6: resting and task-related EEG and ERP; assay type: in vivo, human
Procedure: The computerized tasks included a simple reaction time task and easy and difficult versions of the sustained attention WM task, in which difficulty was manipulated by varying WM load. Subjective scales were also administered to assess drowsiness, mood, and perceived drug effects. […] Transportation home was provided at the end of the sessions. Neurophysiological Alertness: To examine whether there was any neurophysiological evidence for decreased alertness, the EEG data were processed to eliminate artifacts and to compute power spectra and ERPs in each test condition. […] These physiological changes are consistent with the subjective reports of increased drowsiness following phenytoin.

[4] = tested on: healthy normal subjects; experiment: Experiment 6: task performance; set-up: species or system human; conditions: in vivo
Procedure: The computerized tasks included a simple reaction time task and easy and difficult versions of the sustained attention WM task, in which difficulty was manipulated by varying WM load. Subjective scales were also administered to assess drowsiness, mood, and perceived drug effects. […] Transportation home was provided at the end of the sessions.

[5] = blood serum; cited from earlier work
[6] = tested on: healthy normal subjects; experiment: Experiment 6: NCFC index
From the text: Neurocognitive Function Change Index: The hybrid multivariate function for assessing changes in neurocognitive function described in Experiment 2 was also applied to this dataset, computing degree of neurocognitive change from an average of the placebo test sessions. The resulting index scores were then computed as deviations from the pre-drug test administration index score to illustrate how neurocognitive function varied over the phenytoin test session.

[7] = tested on: healthy adults; experiment: Chronic AED administration study: NCFC; assay type: in vivo, human; conditions: one subject, after 30 days of chronic treatment, FIG. 14
From the text: In Progress Study of Effects of Chronic AED Administration. Although their mechanisms of action are varied and incompletely understood, AEDs as a class tend to limit sustained repetitive firing of neurons by antagonizing mechanisms of excitation or by agonizing mechanisms of inhibition. It is likely that such effects have a measurable influence on task-related EEG or ERP parameters. Such biomarkers are being identified through exploratory analyses of data from subjects taking AEDs for 4 weeks. The study, which is being performed by Drs. F. Gilliam and K. Meador, is a randomized, double blind, crossover comparison of the cognitive and behavioral effects of chronic administration of the AEDs lamotrigine and topiramate in healthy adults. Lamotrigine and topiramate are newer AEDs that have been reported to differ in their cognitive side effects.
The study is designed such that subjects are randomized in a first treatment period to receive either lamotrigine or topiramate for 12 weeks (7 weeks of dose escalation followed by 4 weeks of maintenance therapy and then 1 week of tapering off the drug). […] In each test session, subjects have their EEG recorded from 8 scalp electrodes (positioned at AFz, F3, F4, C3, C4, Pz, PO3, PO4) and their EOG recorded from electrodes placed on the supraorbital ridge and outer canthus of each eye, while they perform the WM task and while they rest quietly.

[8] = tested on: healthy subjects; experiment: Experiment 5: subjective scales after alprazolam
Procedure: (§1) Experiment: The motivation behind this experiment was to evaluate whether EEG and/or behavioral indices could be used to detect cognitive side effects of a common psychiatric medication. […] It acts primarily on the GABAergic system, enhancing the inhibitory effects of this neurotransmitter. […] It adversely affects memory functions and psychomotor performance following acute administration, and its CNS effects can be detected in EEG measures. […] The experiment was performed according to a double blind, fully counterbalanced design, and all participation was fully informed and voluntary.
(§2) They then participated in three sessions: a training session and two experimental sessions. In the initial session, following informed consent procedures, subjects were familiarized with the recording methods and apparatus, and given a sham (placebo) drug dose. They then practiced the tasks until performance levels reached asymptote. […] Each session consisted of a pre-drug baseline-recording interval, followed by five post-drug recording intervals extending to 5 hours after drug administration. In the pre-drug interval and in each of the post-drug intervals EEG was recorded while subjects performed computer-presented tasks and while they rested quietly. The computerized tasks included easy and difficult versions of a sustained attention working memory task, where difficulty was manipulated by varying working memory load. Subjective scales were also used to assess drowsiness, mood, and perceived drug effects. The entire procedure, including preparation time and rest breaks lasted approximately 7 hours. Transportation home was provided for the subjects at the end of each experimental session.

[9] = tested on: healthy subjects; experiment: Experiment 5: working memory task performance
Procedure: as §1, §2

[10] = tested on: healthy subjects; experiment: Experiment 5: resting and task-related EEG and ERP; assay type: in vivo, human
Procedure: as §1, §2

[11] = tested on: healthy subjects; experiment: Experiment 5: NCFC index; assay type: in vivo, human; conditions: FIG. 11
From the text: The resulting function is structured such that improvement in cognitive function in response to some intervention results in a positive deviation of the index, and impairment in cognitive function in response to some intervention results in a negative deviation of the index. […] In the first and second periods following drug ingestion the change in index values were highly significant across the group of subjects (t(9)=−4.02, p<0.004 and t(9)=−3.54, p<0.007 for t1 and t2 respectively), with some recovery in the later test periods (p's<0.05 for the rest of the test session).

[12] = in vivo; cited from earlier work
[13] = tested on: healthy adults; conditions: as reported for these AEDs; cited from earlier work

Q: For `O=C1NC(=O)C(c2ccccc2)(c2ccccc2)N1` [phenytoin], which concentration at 5 h ([1]; read-out: blood serum level range) is on record?
A: The concentration at 5 h was 3500 to 13600 ng/mL.

Q: And the concentration at 5 h ([1]; read-out: mean blood serum level)?
A: Its concentration at 5 h is 9000 ng/mL.

Q: What about the “Visual analogue scale: feel the effects of the drug, vs placebo” value ([2]; 10 mg/kg phenytoin) of the same molecule?
A: Its value is “heightened sense that they could “feel the effects of the drug””.

Q: What about the “Time of strongest sensations” value ([2]; after drug administration) of the same molecule?
A: Its value is “about 4 hours”.

Q: And the “Subjective sleepiness vs placebo” value ([2]; in vivo)?
A: Its value is “marginally more sleepy”.

Q: And the “Attention-related enhancement of N160 response to target stimuli” value ([3]; easy level of the task)?
A: Its value is “significantly reduced in the phenytoin condition”.

Q: And the “Resting alpha band power vs placebo” value ([3]; eyes-closed)?
A: Its value is “decrease in power in the 9-11 Hz (alpha band) frequency range”.

Q: And the “Resting theta band power vs placebo” value ([3]; eyes-closed, parieto-occipital electrodes)?
A: The value was “small increase in power in the 3-6 Hz (theta band) frequency range”.

Q: What about the “Effects on centroparietal P300 component” value ([3]; in vivo) of the same molecule?
A: The value was “heterogeneous”.

Q: And the “Difficulty-related enhancement of frontal midline theta signal” value ([3]; low load vs high load WM task)?
A: The value was “reduced the difficulty-related enhancement of the frontal midline theta signal”.

Q: What about the “Accuracy and reaction time during task performance vs placebo” value [4] of the same molecule?
A: The value was “neither accuracy nor reaction time during task performance differed on average”.

Q: And the therapeutic range [5]?
A: Its therapeutic range is 10 to 20 µg/mL.

Q: What about the “Pharmacodynamic profile: onset of cognitive impairment” value ([6]; FIG. 12) of the same molecule?
A: Its value is “slower to develop and relatively mild”.

Q: And the “Period of acute impairment in individual subjects” value ([6]; following drug ingestion)?
A: Its value is 2 to 4 h.

Q: What about the “Average NCFC index scores” value ([6]; relative to pre-treatment baseline) of the same molecule?
A: Its value is “tended to decline relative to the pre-treatment baseline interval”.

Q: With `Nc1nnc(-c2cccc(Cl)c2Cl)c(N)n1` [lamotrigine] as the molecule, how does the “NCFC scores relative to pre-treatment baseline” value [7] read?
A: Its value is “impaired neurocognitive function was observed in response to both drugs”.

Q: What does the source list for `Cc1nnc2n1-c1ccc(Cl)cc1C(c1ccccc1)=NC2` [alprazolam]?
A: Other subjective effects vs placebo ([8]; 1 mg alprazolam): significantly more sleepy, more “spacey/out of it”, and more clumsy; Visual analogue scale: feel the effects of the drug, vs placebo ([8]; 1 mg alprazolam): heightened sense that they could “feel the effects of the drug”; Onset of felt drug effects ([8]; after drug ingestion): 0.5 h; Peak of felt drug effects ([8]; after drug ingestion): 1.5 to 2 h; Time of largest effect on behavioral performance ([9]; after drug ingestion): 0.5 to 1 h; Accuracy in working memory task vs placebo ([9]; easy and difficult level): less accurate; Response speed in working memory task vs placebo ([9]; easy and difficult level): significantly slower; Time of behavior returning towards baseline levels ([9]; post drug ingestion): 3.5 to 4 h; P300 amplitude vs placebo ([10]; difficult task level): significantly reduced P300 amplitude; Resting beta power vs placebo ([10]; eyes closed state): highly significant increase in beta power; Resting theta power vs placebo ([10]; eyes closed state): did not affect theta power in the eyes closed state; Resting alpha power vs placebo ([10]; eyes open and eyes closed states): significantly reduced alpha power in both eyes open and eyes closed states; Resting beta power vs placebo ([10]; eyes open state): same pattern of enhancement after drug ingestion, but to a lesser extent than in the eyes closed state; Resting theta power vs placebo ([10]; eyes open state): significant decrease in theta power in the eyes open state; Task-related beta power vs placebo ([10]; in vivo): significantly larger on the alprazolam day than on the placebo day; Task-related frontal midline theta vs placebo ([10]; in vivo): significantly attenuated; Task-related slow and fast alpha signals vs placebo ([10]; in vivo): significantly attenuated; P300 amplitude vs placebo ([10]; low load task level and simple reaction time task): did not significantly differ between placebo and alprazolam conditions; Pharmacodynamic profile: onset of cognitive impairment [11]: rapid and relatively severe; Tpeak [12]: 1 to 2 h; plasma half-life [12]: 6 to 16 h

Q: With `CC1(C)O[C@@H]2[C@@H](CO[C@@]3(COS(N)(=O)=O)OC(C)(C)O[C@@H]23)O1` [topiramate] as the molecule, how does the “NCFC scores relative to pre-treatment baseline” value [7] read?
A: Its value is “impaired neurocognitive function was observed in response to both drugs”.

Q: And the “Cognitive side effect profile” value [13]?
A: Its value is “relatively worse cognitive side effect profile than lamotrigine”.

Source: patent US6947790B2, “Neurocognitive function EEG measurement method and system” (priority 2000, dated 2005)
